One assay relates to HIVAN in transgenic mice. Conditions: by inhibiting cellular Cdk9, an enzyme required for HIV-1 Tat to induce LTR-mediated virus transcription; cited from earlier work.
In assay [1] the target is Src tyrosine kinase (mouse) (UniProt P05480). Briefly: cell-based or functional assay.

On to `CN1CC[C@H](c2c(O)cc(O)c3c(=O)cc(-c4ccccc4Cl)oc23)[C@H](O)C1` [flavopiridol], for which, in the assay with HIVAN in transgenic mice, the “effect on HIVAN in transgenic mice” value is listed as “ameliorates HIVAN”.
As for HIV-1 Nef, the specific activity of the Src tyrosine kinase (immune-complex kinase assay with [gamma-32P]-ATP and enolase, podocytes transduced with Nef or vector) in assay [1] is 2.3 fold.

Source of the values: US20030229906A1, “Methods and compositions for the treatment of disorders of HIV infection” (priority 2002, published 2003).
